Entries after “also recorded” stand apart in the source; their conditions may differ.
Legend:
IRS-1 = experiment: Immunoblot analysis of IRS-1 (protein, phosphorylation, half-life, p85 coimmunoprecipitation); assay type: cell-based; details: for rapamycin-induced increase in IRS-1: rapamycin 10 nM plus ZPP 200 μM or Y29794 0.5 μM, 24 hours
Description: 2.2 Immunoblot analysis of gene silencing of PRCP or PREP in cancer cells. Mouse anti-PRCP antibody was purchased from Abcam (Cambridge, Mass., USA). Goat anti-PREP antibody was purchased from R&D Systems (Minneapolis, Minn., USA). Mouse anti-R-actin antibody antibodies was from Santa Cruz Biotechnology (Santa Cruz, Calif., USA). Panc-1 pancreatic cancer cells and MCF7 breast cancer cells were cultured to 80% confluence, cells were rinsed three times with pre-cooled PBS, 500 μl of lysis buffer (150 mmol/L Nacl, 1% Triton-x-100, 50 mmol/l TrispH8.0, 1 mmol/L PMSF, 1 ug/L aprotinin, 1 ug/L leupeptin, 1 ug/L peptain) was added to the cells. Cells were scraped and transferred to a centrifuge tube with a pipette. The lysates were spun in a microcentrifuge at maximal speed for 10 minutes at 4° C. to get rid of the insoluble fraction. Protein concentration was determined by Bradford assay. For immunoprecipitation: 2-5 ug protein-specific antibodies were added to 250-500 ug of lysates in a tube and incubated on an ordital shaker 4° C. for 2-4 hours with moderate shaking, then 20 ul Protein G beads (Santa Cruz Biotechnology (Santa Cruz, Calif., USA.) were added and the mixture was incubated with moderate shaking for another hour. After washing the beads in lysis buffer five times, the immunoprecipitates were boiled in 2× Laemmli sample buffer (50 mmoL/L Tris-HCL (pH8.0), 100 mmoL/L DTT, 2% SDS, 0.1% bromophenol blue, 10% glycerol) for five minutes. The proteins were separated by conventional SDS-polyacrylamide gel electrophoresis (SDS-PAGE) electrophoresis and transferred to Amersham Hybond-P PVDF membrane (GE Company, Pittsburgh, Pa., USA). For immunoblot, the membrane was blocked in 2% BSA in TBST buffer (Tris 1.21 g+NaCl 5.84 g+800 ml H2O adjusted to pH 8.0 with HCl) for one hour and then incubated with primary antibodies in TBST at room temperature (22-25° C.) for 2 hours. After washing three times with TBST, the membrane was incubated with HRP-conjugated secondary antibodies for 0.5 hours at room temperature. After washing the membrane five times with TBST (5 minutes/each), the membrane was incubated with ECL chromogenic reagent (GE Company, Pittsburgh, Pa., USA) for 1-5 minutes. The blots were exposed to films in darkroom for 1-5 minute. The films were developed in an automatic X-OMAT Developer (KODAK, Rochester, N.Y., USA). […] PREP gene silencing (PREP KD) or PRCP gene silencing (PRCP KD) or gene silencing both PRCP and PREP (DKD) in MCF7 cells reduces expression of PREP and/or PRCP proteins compared with control cells (control) (FIGS. 6B & 6C).
3.2 AKT phosphorylation was examined by immunoblot as described in 3.1. IRS-1 expression was analyzed by immunoblot using anti-IRS-1 antibodies purchased from Santa Cruz Biotechnology (Santa Cruz, Calif., USA). Reduction in PRCP and/or PREP by gene silencing is shown by Western blot and quantitative PCR described in 2.2.
3.4 ZPP or Y29794 inhibits IRS-1 tyrosine phosphorylation and p85 PI3K subunit interaction with IRS-1 and PI3K kinase activity. Panc-1 cells were treated with ZPP (200 μM) or Y29794 (0.5 μM) for 24 hours. Lysates were immunoprecipitated with anti-IRS-1 antibodies and the anti-IRS-1 immunoprecipitates were used for PI3K kinase assay and anti-IRS-1 phospho-tyrosine and anti-p85 immunoblot analysis (FIG. 13). ZPP or Y29794 decreased IRS-1-associated PI3K activity (FIG. 13, upper) and tyrosine phosphorylation of IRS-1 and p85 (FIG. 13, lower).
As described in Example 2.2 and above, the cells with PRCP and PREP gene silencing were used for analysis of PRCP and PREP gene silencing and inhibition of serine phosphorylation and degradation of IRS-1 and its effects on response to rapamycin. […] Compared to control cells, DKD cells show […] serine phosphorylation (S307 and S636/639) of IRS-1 alongside with decreased tyrosine phosphorylation of IRS-1 (FIG. 18B). […]

PI3K = PI3K kinase assay in anti-IRS-1 immunoprecipitates; assay type: cell-based; details: Panc-1, 24 hours; ZPP 200 μM, Y29794 0.5 μM or rapamycin alone
Description: PI3K kinase assay kit (Calbiochem, Bilerica, Mass., USA) was used to measure the IRS-1-associated or p85-associated PI3K kinase activity in cells. The indicated cells were treated with different conditions for 24 hours. The cells were rinsed three times with pre-cooled PBS, lysed in 500 μl of lysis buffer (150 mmol/L Nacl, 1% Triton-x-100, 50 mmol/1 Tris (pH8.0, 1 mmol/L PMSF, 1 μg/L aprotinin, 1 μg/Lleupeptin, 1 μg/L peptain). Cell lysates (500 μg, in triplicate) of were used for anti-IRS-1 or anti-p85 immunoprecipitation. The immunoprecipitates were resuspended in 200 μl assay buffer and mixed with the fluorescence-labeled PI3K substrate BODIPY-TMR-phosphatidylinositol (100 μM) and ATP (37° C.) for 1 hour. The fluorescence intensity was measured with a fluorometer (excitation wavelength of 540 nm, emission wavelength […]). The difference between fluorescence intensity between control immunoprecipitates (no lysates) and lysate immunoprecipitates was used to indicate PI3K kinase activity. IR-1 anti-rabbit antibody and rabbit anti-PI3K p85 antibody were purchased from Millipore Corporation (Billerica, Mass., USA). Panc-1 anti-p85 immunoprecipitates were used for PI3K kinase assay (FIG. 12) and immunoblot analysis (FIG. 12). Rapamycin treatment in control cells increased PI3K kinase activity (P<0.01). […]

[1] = Panc-1, 24 hours, ZPP 200 μM or Y29794 0.5 μM

IRS-1-associated PI3K activity (PI3K): reduce; also recorded: decreased
Compound: CC(C)c1ccc(C(=O)c2cccs2)c(SCCCCCCCCN(C)C)n1 [Y29794, [2-[8-(dimethylamino)octylsulfanyl]-6-propan-2-ylpyridin-3-yl]-thiophen-2-ylmethanone]
rapamycin-induced increase in IRS-1 (IRS-1; MCF7): blocked
p85 coimmunoprecipitated with IRS-1 (IRS-1; [1]): reduces; also recorded: decreased
tyrosine phosphorylation of IRS-1 in anti-IRS-1 immunoprecipitates (IRS-1; [1]): reduces; also recorded: decreased
IRS-1 protein (IRS-1; Panc-1, Y29794 1 μM (FIG. 19A, 19B)): reduces; also recorded: significantly reduced
serine phosphorylation (S307 and S636/639) of IRS-1 (IRS-1; Panc-1, Y29794 1 μM (FIG. 19B)): induces; also recorded: increased
rapamycin-induced increase in IRS-1 protein (IRS-1; Panc-1, Y29794 1 μM with rapamycin (FIG. 19D)): inhibits; also recorded: not increased nor stabilized
rapamycin-induced increase in IRS-1 (IRS-1; Panc-1): blocked
